Laboratory results taken from patent publication US10449183B2, “Methods for inhibiting preterm labor and uterine contractility disorders and preventing cervical ripening” (DIGNITY HEALTH, priority 2010, dated 2019).
“Also recorded” adds a separate entry of the source. Like-named read-outs stand apart in the source and are kept apart here.

Key:
[1] = cited from earlier work
myometrium = conditions: P4 at concentrations equivalent to those present in the placenta and uterus; cited from earlier work
cervix of pregnant rats = assay: Cervical ripening assessed in vivo by collagen light-induced fluorescence (LIF) with the collascope; design: species or system Sprague-Dawley rats
Source text: (§1) Nonpregnant and timed-pregnant Sprague-Dawley rats (200-250 g) from Charles-River Laboratories (Wilmington, Mass., USA) were delivered to animal care facilities on day 12 of gestation (day 1 being the day when a sperm plug was observed). The animals were housed separately, with free access to food and water and maintained on a constant 12-hour light-dark cycle. Control pregnant rats were spontaneously delivering on day 22 and 23 of gestation. For the measurements with the collascope the animals were anaesthetized (interperitoneal (i.p). injection) with a combination of xylazine (Gemini, Burns Veterinary Supply Inc, Rockville Center, N.Y., USA) and ketamine HCl (Ketaset; Fort Dodge Laboratories Inc, Fort Dodge, Iowa, USA). The animals were randomly allocated to one of the groups and sacrificed by carbon dioxide inhalation on day 3, 5, 7 and 10 postpartum or on day 25 of pregnancy in the groups with delayed delivery. All procedures were approved by the Animal Care and Use Committee of the St. Joseph's Hospital and Medical Center in Phoenix.
(§2) Prior to any treatment LIF measurements were made in control rats throughout pregnancy and postpartum to estimate the LIF profile during gestation (see FIG. 1). Pregnant rats (N=6/group) were treated (see FIG. 2), when not otherwise mentioned (see FIG. 3), from day 13 of pregnancy until delivery. Single daily treatments were performed at 8 a.m. and twice a day treatments at 8 a.m. and 8 p.m. All single injections (4 mg P4, 10 mg 17P, 2 mg promegestone (R5020)) were by the subcutaneous route (s.c.) in sesame oil (0.2 ml), which was also used for the controls. Vaginal gels were applied twice a day with a blunt ball-top needle deep into the vagina. Crinone was used for the P4 vaginal group (equivalent volumes of Crinone were used for 2-15 mg P4/treatment), all data presented show the results of the highest dose (total daily dose of 30 mg P4=⅓ of a applicator of 8% Crinone that contains 90 mg P4). For the vaginal promegestone (R5020) group micronized promegestone (R5020) (1 mg/treatment) was mixed into 0.18 ml of Replens. The control rats for the vaginal groups were treated with Replens (0.18 ml/treatment). For oral P4 treatments (15 mg, bid, vehicle sesame oil or H2O, volume 1 ml) gavage was used. For topical P4 treatment (15 mg, bid, P4 in 1 ml sesame oil, fish oil or in Replens) the drug was applied on the back of animals that were shaved on day 13, 17 and 21. In some animals (N=6) RU-486 (3 mg in 0.2 ml sesame oil) was injected subcutaneously once on day 16 of gestation.
The amount of cervical collagen was evaluated in vivo (only in group subcutaneously P4, vaginal P4, subcutaneously 17P, vaginal promegestone (R5020), subcutaneously RU-486) by measurement of the auto-fluorescent properties of cross-linked collagen with a new prototype of an instrument, termed collascope (Reproductive Research Technologies, Houston, Tex., USA), as used previously with an earlier prototype.
After insertion of a small speculum into the vagina of the anesthetized animal, the optical probe of the collascope was placed on the surface of the exocervix. […] The exposure time for excitation was 100 msec. The average of 20 measurements of the detected fluorescent intensity (photon count) at 390 nm was used for each animal at any given time. Measurements of cervical light-induced fluorescence (LIF) were performed on nonpregnant animals once and in pregnant animals every other day starting at day 13 of gestation until delivery and on postpartum day 3 and/or postpartum day 5 (see FIGS. 2 and 3), and for some animals also on postpartum days 7 and 10 (see FIGS. 1 and 3).
The cervical LIFs obtained at different times of gestation (FIG. 1) were compared using one-way analysis of variance (ANOVA) and multiple pairwise comparison procedures (Holm-Sidak). […]

[2] = Plasma progesterone levels in pregnant rats after various treatments; format: in vivo
Description: FIG. 6 depicts plasma levels of progesterone following various treatments. Plasma progesterone (P4) levels in pregnant rats at day 18 and 21 days of gestation after treatment with P4 vaginal gel (15 mg bid), P4 injections (4 mg subcutaneous daily), topical P4 in fish oil (15 mg bid) and controls (Ctr) treated with vehicles. FIG. 24 depicts pharmokinetic data related to plasma serum levels after topical delivery in rats following various treatments on day 19 of gestation (single treatment only).

pregnant rats = assay: Time of delivery of timed-pregnant rats (hours after 8 a.m. of day 22 of gestation); format: in vivo, Sprague-Dawley rats; conditions: for delay of delivery compared to vehicle control: from day 13
Source text: as §1, §2
Times of delivery (see also FIG. 4) of controls and various treatment groups were determined as hours after 8 a.m. of day 22 of gestation (FIG. 5). The expulsion of one pup was defined as delivery.
The cervical LIFs obtained at different times of gestation (FIG. 1) were compared using one-way analysis of variance (ANOVA) and multiple pairwise comparison procedures (Holm-Sidak). Student's t-test was used to compare the LIF results of a treatment group to its specific control group at any time in gestation and postpartum and also to determine the differences in delivery times (FIGS. 2, 3 and 5). A two-tailed probability value of P<0.05 was considered statistically significant.
FIG. 15 depicts delay of delivery times in timed pregnant rats treated with progesterone (P4) with different routes and vehicles. Treatment was started on day 13 of gestation and continued until delivery of pups or until delivery was blocked at […] (day 25) past day 22 of gestation. 8 am on day 22 is noted as hour 0 and delay is compared to control group treated only with vehicle. Treatment groups included: P4 in fish oil (vaginal, nasal, injection and topical groups), P4 in cocoa butter (rectal) and P4 in sesame oil (oral). All treatment groups received a total daily dose of 30 mg P4/day except the nasal and subcutaneous injection group which received 1 mg/day and 4 mg/day, respectively. […]

[3] = single treatment only on day 19 of gestation

CC(=O)[C@H]1CC[C@H]2[C@@H]3CCC4=CC(=O)CC[C@]4(C)[C@H]3CC[C@]12C [P4, progesterone]
half life ([1]; background statement): roughly 32 hours
half life ([1]; statement under advantages): about 30 minutes
spontaneous myometrial contractility (myometrium): inhibits spontaneous myometrial contractility
cervical LIF, day 25 (delayed delivery) in P4 injection group compared to control animals at day 21 (cervix of pregnant rats; P4 4 mg s.c. daily from day 13): no difference (P<0.05)
cervical LIF / cervical ripening compared with vehicle controls (cervix of pregnant rats; P4 4 mg s.c. daily in sesame oil from day 13 of pregnancy): cervix is rigid; also recorded: significantly (P<0.05) higher; also recorded: longest effect on delaying cervical ripening; also recorded: also prevents further ripening on day 21; also recorded: can only delay, but not completely inhibit cervical ripening; also recorded: delayed but not entirely blocked during the final days of gestation
cervical LIF / cervical ripening compared with vehicle controls (cervix of pregnant rats; vaginal P4 15 mg bid (Crinone) from day 13): no significant differences (P>0.05); also recorded: no effect on cervical ripening; also recorded: no significant differences are observed at any time
plasma circulation levels of progesterone, topical compared to vaginal or subcutaneous injection ([2]; day 21, topical P4 in fish oil 15 mg bid vs vaginal gel 15 mg bid or 4 mg s.c. daily): highly effective in increasing plasma circulation levels of progesterone
persistence of raised plasma levels following administration ([2]; single topical treatment on day 19 of gestation): persist for 1, 2, or more days
plasma levels after topical delivery [2, 3]: increase markedly
plasma levels after topical delivery compared with subcutaneous injection [2, 3]: even higher than subcutaneous injection
delay of delivery compared to controls (pregnant rats; P4 30 mg/day in DHA (docosahexanoic acid) from day 20): significant delays when compared to controls
delay of delivery compared to controls (pregnant rats; P4 30 mg/day in EPA (eicosapentanoic acid) from day 20): All treatment groups except EPA had significant delays
delay of delivery compared to controls (pregnant rats; P4 30 mg/day in GNC Triple Strength fish oil from day 20): significant delays when compared to controls
delay of delivery compared to controls (pregnant rats; P4 30 mg/day in Neptune Krill Oil from day 20): significant delays when compared to controls
delay of delivery compared to controls (pregnant rats; P4 30 mg/day in Nutrasea fish oil from day 20): significant delays when compared to controls
delay of delivery compared to controls (pregnant rats; P4 30 mg/day in Nutrasea+D fish oil from day 20): significant delays when compared to controls
delay of delivery compared to controls (pregnant rats; P4 30 mg/day in Omegasorb GNC fish oil from day 20): complete block of delivery
delay of delivery (pregnant rats; P4 in fish oil, s.c. or topical, all groups begun on days 19, 20, 21 or 22): significant delay of delivery
block of delivery (pregnant rats; P4 in fish oil, subcutaneous injection begun on day 21): complete block in all animals
block of delivery (pregnant rats; P4 in fish oil, topical application begun on day 19): complete block in all animals
delivery (pregnant rats; P4 in fish oil, treatment begun just prior to delivery on day 22): blocked or significantly delayed
effect on delivery (pregnant rats; oral P4 15 mg bid by gavage in sesame oil or H2O from day 13): Delivery was not changed; also recorded: no effect on time of delivery
delay of delivery compared to vehicle control (pregnant rats; rectal P4 in cocoa butter, 30 mg P4/day): significant delay of delivery
effect on delivery (pregnant rats; s.c. injection daily in sesame oil from day 13 (P4 4 mg, 17P 10 mg, R5020 2 mg)): inhibits delivery; also recorded: completely blocked delivery; also recorded: prevented delivery; also recorded: completely inhibited; also recorded: delivery is inhibited
delay of delivery compared to vehicle control (pregnant rats; subcutaneous injection of P4 in fish oil, 4 mg/day): significant delay of delivery
delay of delivery (pregnant rats; topical P4 15 mg bid in Omegasorb fish oil from day 19): significant delay of delivery
effect on delivery (pregnant rats; topical P4 15 mg bid in Replens from day 13): Delivery was not changed; also recorded: not at all
delay of delivery (pregnant rats; topical P4 15 mg bid in coconut oil from day 19): significant delay of delivery
delay of delivery (pregnant rats; topical P4 15 mg bid in corn oil from day 19): All groups but corn oil had significant delay of delivery
effect on delivery (pregnant rats; topical P4 15 mg bid in fish oil from day 13): inhibits delivery; also recorded: completely
delay of delivery (pregnant rats; topical P4 15 mg bid in olive oil from day 19): significant delay of delivery
effect on delivery (pregnant rats; topical P4 15 mg bid in sesame oil from day 13): inhibits delivery; also recorded: only partially
delay of delivery compared to vehicle control (pregnant rats; topical P4 in fish oil, 30 mg P4/day): significant delay of delivery
effect on delivery (pregnant rats; vaginal bid from day 13 (P4 15 mg as Crinone; R5020 1 mg in Replens)): Delivery was not changed; also recorded: failed to inhibit delivery; also recorded: no effect on cervical ripening and on delivery; also recorded: no significant effect on delaying term delivery
